Laboratory results from US20100087432A1, “PYRROLE DERIVATIVES HAVING CRTH2 RECEPTOR ANTAGONIST ACTIVITY” (priority 2004, published 2010).

Key:
human CRTh2 [1] = target: T1, human CRTh2 (Homo sapiens, UniProt Q9Y5Y4); assay: Filtration binding assay ([3H]-PGD2 competition on CHO.K1-CRTh2 membranes); conditions: [3H]-PGD2 2.5 nM, Cheng-Prussoff
T1 sequence (Q9Y5Y4 1-395): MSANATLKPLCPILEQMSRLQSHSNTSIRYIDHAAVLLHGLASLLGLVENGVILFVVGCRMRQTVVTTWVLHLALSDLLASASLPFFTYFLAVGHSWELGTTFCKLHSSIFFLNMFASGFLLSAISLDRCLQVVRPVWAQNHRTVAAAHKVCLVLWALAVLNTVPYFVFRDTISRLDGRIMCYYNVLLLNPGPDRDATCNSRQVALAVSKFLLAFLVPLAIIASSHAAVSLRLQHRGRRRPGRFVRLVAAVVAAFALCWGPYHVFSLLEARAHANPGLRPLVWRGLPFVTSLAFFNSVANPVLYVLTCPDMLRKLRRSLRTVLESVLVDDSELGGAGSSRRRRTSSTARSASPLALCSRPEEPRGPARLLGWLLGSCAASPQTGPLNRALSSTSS
Experimental: The binding of CRTh2 antagonists is determined using membranes prepared from human CRTh2-expressing Chinese Hamster Ovary cells (CHO.K1-CRTh2). To produce cell membranes CHO.K1-CRTh2 cells cultured in roller bottles are harvested using cell dissociation buffer (Invitrogen). The cells are pelleted by centrifugation (167 g, 5 min). The cell pellet is incubated in hypotonic buffer (15 mM Tris-OH, 2 mM MgCl2, 0.3 mM EDTA, 1 mM EGTA, 1×Complete™ tablet) at 4° C. for 30 minutes. At 4° C. cells are homogenized using a Polytron® (IKA Ultra Turrax T25) for 5 bursts of 1 second. The homogenate is centrifuged (Beckman Optima TM TL Ultracentrifuge, 48000 g, 30 minutes at 4° C.). The supernatant is discarded and the membrane pellet re-suspended in homogenisation buffer (75 mM Tris-OH, 12.5 mM MgCl2, 0.3 mM EDTA, 1 mM EGTA, 250 mM Sucrose, 1×Complete™ tablet. Membrane preparations are aliquoted and stored at […]. The protein content is estimated using Bradford Protein Assay Dye (Bio Rad).
The binding of [^3H]-PGD2 (157 Ci/mmol) to CHO.K1-CRTh2 membranes is determined in the absence (total binding) and presence (non-specific binding) of unlabelled PGD2 (1 μM). Subtraction of the cpm (counts per minute) of [^3H]-PGD2 binding in presence of excess unlabelled PGD2 from that observed in the absence of excess unlabelled PGD2 is defined as specific binding. Active CRTh2 antagonists are able to compete with [^3H]-PGD2 for binding to the CRTh2 receptor and are identified in a decrease in the number of cpm bound.
The assay is performed in Greiner U-bottomed 96 well-plates, in a final volume of 100 μL per well. CHO.K1-CRTh2 membranes were diluted in assay buffer (10 mM HEPES-KOH (pH 7.4), 1 mM EDTA and 10 mM MnCl2) and 10 μg are added to each well [^3H]-PGD2 is diluted in assay buffer and added to each well at a final concentration of 2.5 nM. To determine non-specific binding, [^3H]-PGD2 binding to the CRTh2 receptor is competed with using unlabelled PGD2 at a final well concentration of 1 μM. The experiment is done in triplicate, with reagents added to the wells as follows: • 25 μL assay buffer for total binding or • 25 μL PGD2 to determine non-specific binding • 25 μL [^3H]PGD2 • […] • 25 μL test compound in DMSO/assay buffer
The plates are incubated at room temperature on a shaker for 1 hour, and then harvested (Tomtec Harvester 9600) onto GF/C filter plates using wash buffer (10 mM HEPES-KOH, pH 7.4). The plate is dried for 2 hours, prior to addition of Micro-Scint 20™ (50 μL) and sealing with TopSeal-S™. Plates are then counted using a Packard Top Count instrument, Plates are then read on the Packard Topcount with the 3H Scintillation program (1 min./well).
Ki (dissocation constant for the inhibition) values for the CRTh2 antagonists are reported. Ki values are determined using Sigma Plot™ software, using the Cheng-Prussoff equation.
(§1) where S is the concentration of radioligand and Kd is the dissociation constant. CRTH2 cAMP Functional Assay Protocol

human CRTh2 [2] = target: T1, human CRTh2; assay: CRTH2 cAMP functional assay in CHO.K1-CRTh2 cells; assay type: cell-based; conditions: inhibition of PGD2-mediated attenuation of forskolin-induced cAMP accumulation in CHO.K1-CRTh2 cells
Experimental: as §1
This assay is conducted in CHO.K1-CRTh2 cells. cAMP is generated in the cell by stimulating cells with 5 μM forskolin, an adenylate cyclase activator. PGD2 is added to activate the CRTh2 receptor which results in the attenuation of the forskolin-induced cAMP accumulation. Potential CRTh2 antagonists are tested for their ability to inhibit the PGD2− mediated attenuation of the forskolin-induced cAMP accumulation in CHO.K1-CRTh2 cells.
For each concentration value on the dose-response curve, test compounds are prepared in assay stimulation buffer (HBSS, 5 mM HEPES, 10 μM IBMX ±0.1% human serum albumin) containing DMSO (3% vol/vol) and 5 μL/well is added to an assay plate (384 well white optiplate).
CHO.K1-CRTh2 cultured in tissue culture flasks are washed with PBS and harvested with dissociation buffer. Cells are washed with PBS and re-suspended in stimulation buffer to a concentration of 0.4×10^6/mL and added to the assay plate (10 μL/well).
The assay plate is incubated at room temperature on a shaker for 15 minutes.
A mix of agonist (10 nM Prostaglandin D2) and 5 μM forskolin is prepared in assay stimulation buffer and added to the assay plate (5 μL/well).
In addition, a cAMP standard is serially diluted in assay stimulation buffer and added to separate empty wells on the assay plate (20 μL/well). The cAMP standard allows for the quantification of cAMP generated in CHO.K1-CRTH2 cells.
The assay plate is incubated at room temperature on a shaker for 60 minutes.
Cell lysis buffer (Lysis buffer: Milli-Q H2O, 5 mM HEPES, 0.3% Tween-20, 0.1% human serum albumin) is added to a bead mix (containing Alphascreen™ anti-cAMP acceptor beads 0.06 units/μL, Alphascreen™ streptavidin-coated donor beads 0.06 units/μL, biotinylated cAMP 0.06 units/μL, 10 μM IBMX) is prepared under darkened conditions 60 minutes prior to addition to the assay plate. The resulting lysis mix is added to all wells of the assay plate (40 μL/well).
The assay plate is sealed with Topseal-S™ and incubated in the dark at room temperature on a shaker for 45 minutes. The plate is then counted using a Packard Fusion™ instrument.
The resulting counts per minute are converted to nM cAMP by using the prepared cAMP standard curve. IC50 values (concentration of CRTh2 antagonist required to inhibit 50% of the PGD2-mediated attenuation of forskolin-induced cAMP accumulation in CHO.K1-CRTh2 cells) are then determined using Prism™ software.

Row | SMILES | Ki (human CRTh2 [1]) | IC50 (human CRTh2 [2])
1 | N#Cc1cn(CC(=O)O)cc1-c1cc(C(F)(F)F)cc(C(F)(F)F)c1 [Example 1, [3-(3,5-Bis-Trifluoromethyl-Phenyl)-4-Cyano-Pyrrol-1-yl]-Acetic Acid] | 10 nM | 28 nM
2 | N#Cc1cn(CC(=O)O)cc1-c1cc(Cl)cc(Cl)c1 [Example 2, [3-Cyano-4-(3,5-Dichloro-Phenyl)-Pyrrol-1-yl]-Acetic Acid] | 34 nM | 57 nM
3 | N#Cc1cn(CC(=O)O)cc1-c1cccc2c1OC(F)(F)O2 [Example 3] | 244 nM | 846 nM
4 | N#Cc1cn(CC(=O)O)cc1-c1cccc(Cl)c1 [Example 8, [3-(3-Chloro-phenyl)-4-cyano-pyrrol-1-yl]-acetic acid] | 163 nM | 255 nM
5 | N#Cc1cn(CC(=O)O)cc1-c1cccc(C(F)(F)F)c1 [Example 12, [3-Cyano-4-(3-trifluoromethyl-phenyl)-pyrrol-1-yl]-acetic acid] | 172 nM | 69 nM
6 | N#Cc1cn(CC(=O)O)cc1-c1cc(Cl)ccc1Cl [Example 15, [3-Cyano-4-(2,5-dichloro-phenyl)-pyrrol-1-yl]-acetic acid] | 144 nM | 282 nM
7 | N#Cc1cn(CC(=O)O)cc1-c1cc(C(F)(F)F)ccc1Cl [Example 17, [3-(2-Chloro-5-trifluoromethyl-phenyl)-4-cyano-pyrrol-1-yl]-acetic acid] | 89 nM | 161 nM
8 | N#Cc1cn(CC(=O)O)cc1-c1cc(C(F)(F)F)ccc1C(F)(F)F [Example 21, [3-(2,5-Bis-trifluoromethyl-phenyl)-4-cyano-pyrrol-1-yl]-acetic acid] | 96 nM | 147 nM
9 | N#Cc1cn(CC(=O)O)cc1-c1cc(C(F)(F)F)cc(Cl)c1F [Example 25, [3-(3-Chloro-2-fluoro-5-trifluoromethyl-phenyl) -4-cyano-pyrrol-1-yl]-acetic acid] | 40 nM | 25 nM
10 | N#Cc1cn(CC(=O)O)cc1-c1cc(C(F)(F)F)cc(S(=O)(=O)N2CCCCC2)c1 [Example 40, {3-Cyano-4-[3-(Piperidine-1-Sulfonyl)-5-Trifluoromethyl-Phenyl]Pyrrol-1-yl}-Acetic Acid] | 2 nM | 12 nM
11 | N#Cc1cn(CC(=O)O)cc1-c1cc(C(F)(F)F)cc(S(=O)(=O)N2CCCC2)c1 [Example 42, {3-cyano-4-[3-(pyrrolidine-1-sulfonyl)-5-trifluoromethyl-phenyl]-pyrrol-1-yl}-acetic acid] | 6 nM | 17 nM
12 | CCCCNS(=O)(=O)c1cc(-c2cn(CC(=O)O)cc2C#N)cc(C(F)(F)F)c1 [Example 45, [3-(3-butylsulfamoyl-5-trifluoromethyl-phenyl)-4-cyano-pyrrol-1-yl]-acetic acid] | 6 nM | 16 nM
13 | N#Cc1cn(CC(=O)O)cc1-c1cc(C(F)(F)F)cc(S(=O)(=O)NC2CCC2)c1 [Example 50, [3-cyano-4-(3-cyclobutylsulfamoyl-5-trifluoromethyl-phenyl)-pyrrol-1-yl]-acetic acid] | 4 nM | 9 nM
14 | N#Cc1cn(CC(=O)O)cc1-c1cc(Cl)cc(S(=O)(=O)N2CCCCC2)c1 [Example 53, {3-[3-Chloro-5-(Piperidine-1-Sulfonyl)-Phenyl]-4-Cyano-Pyrrol-1-yl}-Acetic Acid] | 2 nM | 46 nM
15 | CN(C)S(=O)(=O)c1cc(-c2cn(CC(=O)O)cc2C#N)cc(C(F)(F)F)c1 [Example 64, [3-Cyano-4-(3-Dimethylsulfamoyl-5-Trifluoromethyl-Phenyl)-Pyrrol-1-yl]-Acetic Acid] | 42 nM | 14 nM
